Measured values as given in US10011571B2, “Preparation method for aromatic heterocyclic compound used as selective JAK3 and/or JAK1 kinase inhibitor and application of aromatic heterocyclic compound” (SHENZHEN CHIPSCREEN BIOSCIENCES, LTD., priority 2014, dated 2018).

Tests used:
[1] = system: HeLa cells; test: Cell growth activity assay (MTS), HeLa cell model; format: cell-based, human; design: activity: dose or concentration left out as unconfirmed; conditions: Homo sapiens, HeLa, 72 h, read-out: HeLa % growth rate
Description: (§1) MTS assay is a routine method for cell toxicity detection. The basic principle is based on the capacity of dehydrogenase in the mitochondria of living cells to reduce a novel yellow […] MTS to formazan, so that the amount of living cells is proportional to the amount of formazan product by detecting the absorbance at 490 nm (OD), thereby speculating the amount of living cells according to the OD value, and understanding the capacity of the test compound to inhibit the growth of cells or to kill the cells.
HeLa cell is a human cervical cancer cell line, and belongs to epithelial tumor cell line; HUVEC is a human umbilical vein endothelial cell, and belongs to primary endothelial cell; both types of cells express all subtypes except for JAK3.
The change of JAK kinase activity has no significant influence on other cell types except for the immune cells, and both cell models mentioned above are mainly used to evaluate whether there are any other kinase targets besides JAK kinases or there are nonselective cell toxicities.
In this experiment, a cultured cell model is incubated with the test compounds at different concentrations for a specific duration. The effect of the treatment by the test compound on the growth of cells is detected using MTS assay.
(§2) MTS is performed according to routine procedure in a 96-well plate.
(§3) The model cells are inoculated into each well of the 96-well plate at an appropriate concentration (about 5000 cells/well). After 24 h, the test compounds are added at different concentration gradients (the highest final concentration is 40 μM). A solvent control (DMSO) and a negative control are also performed at the same time. Each experiment is repeated for 3 times. The cells are detected after cultured for another 72 h.
After all culture medium is aspirated out of the well, 100 μL fresh medium and 20 μL pre-formulated mixture of MTS and PMS (in a ratio of 20:1) are added to each well. After incubation at 37° C. for 2 h, it is then detected by a microplate reader (490 nm).
The cell growth inhibitory rate and GI50 of the test compound are calculated as above.
Based on the above method, cytological evaluation is performed to the compounds described herein (for the detection of CTLL-2 cell, the concentration of the test compound is 300 nM; […]).

[2] = biological target: JAK1 (Homo sapiens (Human), UniProt P23458); test: Z'-LYTE enzymatic activity detection, JAK1; format: biochemical; conditions: test compound 300 nM; for inhibition at 0.3 µM: read-out: JAK1 % inhibitory rate @300 nM
Description: (§4) The basic principle of in vitro enzymatic activity assay is based on the difference between the intensities of fluorescence signals generated at different wavelengths (445 nm and 520 nm) from the phosphorylated substrate and non-phosphorylated substrate, in which the specific fluorescence-labeled substrate is phosphorylated by the kinase. When different test compounds are added, the inhibition of kinase activity is represented as the different degrees of substrate phosphorylation, and thus as the different intensities of fluorescence signal, based on which the inhibitory activity of the compound on the kinase can be calculated. Basic detection principle is illustrated in FIG. 1.
(§5) In an enzymatic inhibitory activity detection, GST-labeled human recombinant JAK kinases, including JAK1/PV4774, JAK2/PV4210, JAK3/PV3855, TYK2/PV4790 and their corresponding specific substrates, including Tyr6 (Z′-LYTE® Kinase Assay Kit-Tyrosine 6 Peptide, JAK1/PV4122), Tyr4 (Z′-LYTE® Kinase Assay Kit-Tyrosine 4 Peptide, JAK2/PV3193), Tyr4 (Z′-LYTE® Kinase Assay Kit-Tyrosine 4 Peptide, JAK3/PV3193), Tyr3 (Z′-LYTE® Kinase Assay Kit-[…], TYK2/PV3192) are used. In all tests, development reagent A (PV3297) was used as the test agent. All materials mentioned above were purchased from Invitrogen.
(§6) (1) Preparation: kinase reaction buffer (working solution) is prepared according to the instruction; a concentration gradient of the test compound is prepared by dilution using the kinase reaction buffer (the highest compound concentration is 10 μM for JAK1, JAK2, and TYK2 detection, and 1 μM for JAK3 detection, respectively).
(§7) (2) 10 μl of reaction system, comprising 2.5 μL test compound, 5 μL kinase reaction buffer and 2.5 μL ATP solution (provided by the kit), is mixed and reaction is performed at room temperature for 1 h.
(§8) (3) Controls, including a solvent control without the test compound, a negative control without ATP and a positive control with the phosphorylated substrate, are tested together with the detection. All tests are carried out in triplicate.
(§9) (4) After the enzymatic reaction, 5 μL pre-formulated development buffer is added, and reaction is performed at room temperature for 1 h. Subsequently, the reaction is terminated by adding 5 μL stop buffer.
(§10) (5) The fluorescence signal in each well is detected by an Ascent Fluoroskan FL reader (Thermo Labsystems) at an excitation wavelength of 400 nm, and emission wavelengths of 445 nm and 520 nm. The proportion of substrate phosphorylation is obtained by reference to the fluorescence signal intensity C445/F520.
(§11) (6) The enzymatic inhibitory rate of the test compound can be calculated based on the following equation: Inhibitory rate (%)=1−the proportion of substrate phosphorylation in the detection well/the proportion of substrate phosphorylation in the solvent control well. The half-inhibitory concentration (IC50) can be calculated using an IC50 calculator based on the inhibitory rates of phosphorylation for the test compounds at different concentration gradients.
(§12) Based on the above method, the compounds described herein are enzymatically evaluated in vitro for JAKs (the concentration of the test compound is 30 nM for JAK3 and JAK2 test, and 300 nM for JAK1 test) using Xeljanz (tofacitinib citrate) as the positive control.

[3] = biological target: JAK2 (Homo sapiens (Human), UniProt O60674); test: Z'-LYTE enzymatic activity detection, JAK2; format: biochemical; conditions: test compound 30 nM; for inhibition at 0.03 µM: read-out: JAK2 % inhibitory rate @30 nM
Description: as §4, §5, §6, §7, §8, §9, §10, §11, §12

[4] = system: CTLL-2 cells; test: Cell growth activity assay (MTS), CTLL-2 cell model; format: cell-based, mouse; conditions: Mus musculus, CTLL-2, 300 nM, 24 h, read-out: CTLL-2 % growth rate @300 nM
Description: as §1
In this experiment, mouse T-cell line CTLL-2 was used. The proliferation and growth of this cell line strongly depend on IL-2, and it is commonly used to evaluate the active titer of exogenous IL-2. By inhibiting the activity of kinase JAK1/3, the proliferation of CTLL-2 can be inhibited under in vitro culture. The activation and proliferation of T-cell is also important pathological characteristics for various immunological diseases. Thus, this model is also pathologically related.
By comparing the change of absorbance generated by the cells treated by the test compounds using MTS assay, the growth inhibitory activity of the test compounds on the model cells can be realized, and thereby potential inhibitory activity of the compounds on JAK1/3 pathway can be evaluated.
as §2
as §3, with “20,000” for “5000”, “highest” for “highest final”, “of 10” for “is 40”, “24” for “72”
CTLL-2 is a suspended cell. After incubation, 20 μL pre-formulated mixture of MTS and PMS (in a ratio of 20:1) is directly added to each well. After incubation at 37° C. for 2 h, it is then detected by a microplate reader (490 nm).
The effect of the test compound on cell growth is calculated by comparing the change of OD values between the test well and the solvent control well, after subtracting the background of the negative control. For the test compounds at different concentration gradients, the inhibitory rates on the growth of model cells and their half-growth inhibitory concentrations (GI50) are each calculated.
Based on the above method, cytological evaluation is performed to the compounds described herein (for the detection of CTLL-2 cell, the concentration of the test compound is 300 nM; for the detection of HeLa and HUVEC cell, the concentration of the test compound is […]).

[5] = biological target: JAK3 (Homo sapiens (Human), UniProt P52333); test: Z'-LYTE enzymatic activity detection, JAK3; format: biochemical; conditions: test compound 30 nM; for inhibition at 0.03 µM: read-out: JAK3 % inhibitory rate @30 nM
Description: as §4, §5, §6, §7, §8, §9, §10, §11, §12

Sequence of JAK3 (P52333 whole entry): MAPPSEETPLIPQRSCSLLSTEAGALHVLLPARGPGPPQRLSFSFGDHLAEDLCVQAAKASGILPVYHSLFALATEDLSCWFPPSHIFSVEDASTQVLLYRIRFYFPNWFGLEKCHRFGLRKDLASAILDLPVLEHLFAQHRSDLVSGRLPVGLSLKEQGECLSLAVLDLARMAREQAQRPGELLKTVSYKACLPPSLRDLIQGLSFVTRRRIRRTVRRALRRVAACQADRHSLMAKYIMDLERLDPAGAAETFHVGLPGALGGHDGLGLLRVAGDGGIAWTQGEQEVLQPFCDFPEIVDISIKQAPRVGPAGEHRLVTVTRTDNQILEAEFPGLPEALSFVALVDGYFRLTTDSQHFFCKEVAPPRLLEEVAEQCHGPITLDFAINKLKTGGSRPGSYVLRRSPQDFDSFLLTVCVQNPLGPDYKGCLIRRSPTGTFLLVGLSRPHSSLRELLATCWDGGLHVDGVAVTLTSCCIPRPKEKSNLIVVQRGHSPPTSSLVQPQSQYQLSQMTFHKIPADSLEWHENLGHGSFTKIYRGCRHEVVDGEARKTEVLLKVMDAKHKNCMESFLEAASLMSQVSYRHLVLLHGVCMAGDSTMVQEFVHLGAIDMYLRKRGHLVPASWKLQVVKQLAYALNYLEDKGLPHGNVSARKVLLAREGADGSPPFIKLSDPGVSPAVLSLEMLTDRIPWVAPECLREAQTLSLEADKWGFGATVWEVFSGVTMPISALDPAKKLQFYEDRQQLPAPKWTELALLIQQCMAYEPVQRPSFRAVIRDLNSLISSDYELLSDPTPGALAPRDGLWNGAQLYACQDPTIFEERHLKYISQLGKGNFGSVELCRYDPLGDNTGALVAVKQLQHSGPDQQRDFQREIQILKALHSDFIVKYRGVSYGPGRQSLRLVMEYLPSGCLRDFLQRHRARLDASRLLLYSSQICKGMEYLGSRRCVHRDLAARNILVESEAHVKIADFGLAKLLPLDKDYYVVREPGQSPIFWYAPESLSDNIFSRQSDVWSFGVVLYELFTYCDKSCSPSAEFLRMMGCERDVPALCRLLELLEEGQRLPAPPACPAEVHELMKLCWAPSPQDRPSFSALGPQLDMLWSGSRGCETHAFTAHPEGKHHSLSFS
Sequence of JAK2 (O60674 whole entry): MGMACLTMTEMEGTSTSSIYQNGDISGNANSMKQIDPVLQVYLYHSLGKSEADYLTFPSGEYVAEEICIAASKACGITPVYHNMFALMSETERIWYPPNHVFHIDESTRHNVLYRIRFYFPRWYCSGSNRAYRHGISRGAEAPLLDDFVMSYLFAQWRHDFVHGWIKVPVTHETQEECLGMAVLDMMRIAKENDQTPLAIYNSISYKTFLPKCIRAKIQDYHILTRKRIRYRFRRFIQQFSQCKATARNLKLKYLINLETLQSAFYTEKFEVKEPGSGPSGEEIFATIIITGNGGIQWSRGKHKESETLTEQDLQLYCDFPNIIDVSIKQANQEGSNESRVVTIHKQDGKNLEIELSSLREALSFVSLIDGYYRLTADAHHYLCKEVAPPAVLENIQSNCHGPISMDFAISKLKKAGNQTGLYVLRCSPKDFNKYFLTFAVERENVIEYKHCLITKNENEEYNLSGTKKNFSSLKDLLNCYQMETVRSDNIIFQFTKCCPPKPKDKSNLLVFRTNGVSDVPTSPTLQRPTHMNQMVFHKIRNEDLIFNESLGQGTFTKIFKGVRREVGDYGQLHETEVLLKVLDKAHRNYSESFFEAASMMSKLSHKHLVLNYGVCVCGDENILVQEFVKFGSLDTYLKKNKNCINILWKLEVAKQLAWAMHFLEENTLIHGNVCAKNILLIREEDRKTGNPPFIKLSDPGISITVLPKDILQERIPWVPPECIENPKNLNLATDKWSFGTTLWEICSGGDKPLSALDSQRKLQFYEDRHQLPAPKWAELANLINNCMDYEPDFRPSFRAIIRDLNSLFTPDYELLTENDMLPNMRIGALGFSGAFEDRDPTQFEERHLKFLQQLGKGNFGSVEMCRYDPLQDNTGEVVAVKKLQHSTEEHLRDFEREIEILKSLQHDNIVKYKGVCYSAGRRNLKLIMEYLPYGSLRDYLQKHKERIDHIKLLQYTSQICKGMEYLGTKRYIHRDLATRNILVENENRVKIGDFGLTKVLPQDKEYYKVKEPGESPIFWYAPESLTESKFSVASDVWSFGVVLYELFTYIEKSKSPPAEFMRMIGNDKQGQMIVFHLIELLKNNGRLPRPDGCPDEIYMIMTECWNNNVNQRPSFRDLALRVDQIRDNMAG
Sequence of JAK1 (P23458 whole entry): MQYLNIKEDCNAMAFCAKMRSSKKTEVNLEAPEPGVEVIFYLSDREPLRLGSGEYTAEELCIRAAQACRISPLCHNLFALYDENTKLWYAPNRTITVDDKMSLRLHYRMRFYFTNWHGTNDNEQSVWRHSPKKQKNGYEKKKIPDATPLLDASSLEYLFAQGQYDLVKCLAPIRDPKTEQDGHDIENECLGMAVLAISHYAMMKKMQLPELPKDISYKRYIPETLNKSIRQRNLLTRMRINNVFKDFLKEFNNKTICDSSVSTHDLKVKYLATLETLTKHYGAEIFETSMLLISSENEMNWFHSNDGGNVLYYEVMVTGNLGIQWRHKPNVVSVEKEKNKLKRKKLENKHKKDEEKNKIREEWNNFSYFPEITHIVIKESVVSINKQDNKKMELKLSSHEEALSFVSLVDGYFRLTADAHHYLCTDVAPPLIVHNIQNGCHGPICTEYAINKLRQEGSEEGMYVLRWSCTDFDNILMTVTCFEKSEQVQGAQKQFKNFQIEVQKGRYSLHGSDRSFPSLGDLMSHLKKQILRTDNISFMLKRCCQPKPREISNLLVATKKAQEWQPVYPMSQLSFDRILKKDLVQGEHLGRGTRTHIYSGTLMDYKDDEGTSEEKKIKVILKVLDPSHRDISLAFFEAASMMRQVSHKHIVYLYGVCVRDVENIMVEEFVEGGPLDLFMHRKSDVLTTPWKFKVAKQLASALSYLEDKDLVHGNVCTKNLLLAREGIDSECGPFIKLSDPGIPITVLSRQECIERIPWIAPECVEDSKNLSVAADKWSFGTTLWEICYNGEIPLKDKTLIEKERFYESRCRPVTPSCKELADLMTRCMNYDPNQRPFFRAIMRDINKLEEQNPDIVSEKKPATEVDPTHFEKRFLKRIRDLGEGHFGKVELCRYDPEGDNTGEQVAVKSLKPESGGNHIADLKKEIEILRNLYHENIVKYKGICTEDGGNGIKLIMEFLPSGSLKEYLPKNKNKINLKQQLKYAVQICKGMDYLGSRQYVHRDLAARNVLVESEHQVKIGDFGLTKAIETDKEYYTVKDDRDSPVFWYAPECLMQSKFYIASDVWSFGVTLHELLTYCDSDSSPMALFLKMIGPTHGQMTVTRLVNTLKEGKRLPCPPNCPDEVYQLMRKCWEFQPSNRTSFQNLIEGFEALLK

| SMILES | activity [1] [%] | JAK1 RV (ratio between the inhibitory rate of the test compound and that of Xeljanz) [2] | inhibition at 0.3 µM [2] [%] | inhibition at 0.03 µM [3] [%] | activity at 0.3 µM [4] [%] | JAK3 RV (ratio between the inhibitory rate of the test compound and that of Xeljanz) [5] | inhibition at 0.03 µM [5] [%] | JAK2 RV (ratio between the inhibitory rate of the test compound and that of Xeljanz) [3] |
| --- | --- | --- | --- | --- | --- | --- | --- | --- |
| C=CC(=O)N(C)c1cc(Nc2ncc(Cl)c(NCCCNC(=O)c3cccc(C#N)c3)n2)ccc1F [Example 95, N-(3-(5-chloro-2-(4-fluoro-3-(N-methylacrylamido)phenylamino)pyrimidinyl-4-amino)propyl)-3-cyanobenzamide] | 3 | 0.53 | 45 | 0 | 3 | 1.01 | 84 |  |
| C=CC(=O)N(C)c1cc(Nc2ncc(Cl)c(NCCCNC(=O)c3ccc(C)cc3)n2)ccc1F [Example 83, N-(3-(5-chloro-2-(4-fluoro-3-(N-methylacrylamido)phenylamino)pyrimidinyl-4-amino)propyl)-4-methylbenzamide] | 70 | 0.42 | 36 | 2 | 4 | 0.92 | 76 | 0.04 |
| C=CC(=O)N(C)c1cc(Nc2ncc(Cl)c(NCCCNC(=O)c3ccc(C(F)F)cc3)n2)ccc1F [Example 115, N-(3-(5-chloro-2-(4-fluoro-3-(N-methylacrylamido)phenylamino)pyrimidinyl-4-amino)propyl)-4-difluoromethylbenzamide] | 71 | 0.49 | 42 | 0 | 3 | 0.98 | 81 |  |
| C=CC(=O)N(C)c1cc(Nc2ncc(Cl)c(NCCCNC(=O)c3ccc(C#N)c(F)c3)n2)ccc1F [Example 56, N-(3-(5-chloro-2-(4-fluoro-3-(N-methylacrylamido)phenylamino)pyrimidinyl-4-amino)propyl)-4-cyano-3-fluorobenzamide] | 60 | 0.05 | 9 | 0 | 30 | 0.59 | 116 |  |
| C=CC(=O)N(C)c1cc(Nc2ncc(Cl)c(NCCCNC(=O)c3c(F)cc(F)cc3F)n2)ccc1F [Example 36, N-(3-(5-chloro-2-(4-fluoro-3-(N-methylacrylamido)phenylamino)pyrimidinyl-4-amino)propyl)-2,4,6-trifluorobenzamide] | 38 | 0.25 | 42 | 0 | 32 | 0.53 | 104 |  |
| C=CC(=O)N(C)c1cc(Nc2ncc(Cl)c(NCCCNC(=O)c3ccc(C(F)(F)F)c(F)c3)n2)ccc1F [Example 103, N-(3-(5-chloro-2-(4-fluoro-3-(N-methylacrylamido)phenylamino)pyrimidinyl-4-amino)propyl)-3-fluoro-4-trifluoromethylbenzamide] | 55 | 0.87 | 74 | 0 | 3 | 1.04 | 86 |  |
| C=CC(=O)N(C)c1cc(Nc2ncc(C)c(NCCCNC(=O)c3ccc(C#N)cc3)n2)ccc1F [Example 58, 4-cyano-N-(3-(2-(4-fluoro-3-(N-methylacrylamido)phenylamino)-5-methylpyrimidinyl-4-amino)propyl)benzamide] | 88 | 0.01 | 1 | 0 | 54 | 0.79 | 107 |  |
